According to patent publication US8563553B2, “Compounds and compositions as protein kinase inhibitors” (Novartis AG, priority 2009, dated 2013):

These molecules were tested against b-Raf(V600E) (Homo sapiens (Human), UniProt P15056, V600E) (assay: Raf/Mek Amplified Luminescence Proximity Homogeneous Assay (Alpha Screen)). Settings: b-Raf(V600E) approximately 4 pM; biotinylated Mek, kinase dead approximately 10 nM; ATP 10 μM; pre-incubation 60 minutes; reaction 3 hours at room temperature; read-out: mut-B-RAF IC50.
Chain of b-Raf(V600E) (P15056 whole entry V600E): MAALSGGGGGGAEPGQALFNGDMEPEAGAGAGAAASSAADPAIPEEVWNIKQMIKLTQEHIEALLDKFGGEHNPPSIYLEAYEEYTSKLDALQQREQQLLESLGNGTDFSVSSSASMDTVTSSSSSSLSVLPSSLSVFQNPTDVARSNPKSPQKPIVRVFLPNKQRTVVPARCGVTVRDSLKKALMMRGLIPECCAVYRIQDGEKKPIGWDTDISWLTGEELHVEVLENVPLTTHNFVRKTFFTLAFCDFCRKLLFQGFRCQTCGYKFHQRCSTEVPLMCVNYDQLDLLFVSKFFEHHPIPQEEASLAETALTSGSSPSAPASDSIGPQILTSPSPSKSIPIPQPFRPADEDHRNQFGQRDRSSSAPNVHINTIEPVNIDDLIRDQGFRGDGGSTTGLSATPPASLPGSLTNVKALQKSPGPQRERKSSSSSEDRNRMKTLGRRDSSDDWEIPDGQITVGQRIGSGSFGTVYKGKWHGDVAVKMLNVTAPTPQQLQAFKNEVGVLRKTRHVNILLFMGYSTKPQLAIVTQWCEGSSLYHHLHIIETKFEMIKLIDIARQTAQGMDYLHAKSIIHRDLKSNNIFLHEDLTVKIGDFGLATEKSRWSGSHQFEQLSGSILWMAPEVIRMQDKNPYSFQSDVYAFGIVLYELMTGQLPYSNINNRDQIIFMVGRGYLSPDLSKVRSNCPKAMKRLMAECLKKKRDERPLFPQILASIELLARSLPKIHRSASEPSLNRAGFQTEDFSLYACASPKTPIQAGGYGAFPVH
Assay type: biochemical
How it was run: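 Raf pre-incubated with compound and kinase-dead biotinylated Mek (~10 nM) for 60 min, room temperature, in 50 mM Tris pH 7.5, 15 mM MgCl2, 0.01% BSA, 1 mM DTT; ATP-started reaction 1 or 3 h, EDTA stop. Phospho-MEK detected by anti-p-MEK1/2 AlphaScreen; IC50 by non-linear regression.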

**Q.** How did the IC50 turn out when COC(=O)N[C@@H](C)CNc1nccc(-c2[nH]c(C3CC3)nc2-c2cc(F)cc(NS(=O)(=O)c3c(F)cccc3F)c2Cl)n1 [Example 1BI, (S)-Methyl 1-(4-(4-(2-chloro-3-(2,6-difluorophenylsulfonamido)-5-fluorophenyl)-2-cyclopropyl-1H-imidazol-5-yl)pyrimidin-2-ylamino)propan-2-ylcarbamate] was run?
**A.** 0.1 nM

**Q.** Which IC50 does the source give for CCCS(=O)(=O)Nc1cccc(-c2nc(C3CC3)[nH]c2-c2ccnc(NCCC#N)n2)c1F [Example 4G, N-(3-(5-(2-(2-Cyanoethylamino)pyrimidin-4-yl)-2-cyclopropyl-1H-imidazol-4-yl)-2-fluorophenyl)propane-1-sulfonamide] here?
**A.** 0.13 nM

**Q.** COC(=O)N[C@@H](C)CNc1nccc(-c2[nH]c(C3CCC3)nc2-c2cc(F)cc(NS(C)(=O)=O)c2Cl)n1 [Example 1BU, (S)-Methyl 1-(4-(4-(2-chloro-5-fluoro-3-(methylsulfonamido)phenyl)-2-cyclobutyl-1H-imidazol-5-yl)pyrimidin-2-ylamino)propan-2-ylcarbamate] was tested. Which IC50 did it give?
**A.** 1 nM

**Q.** How did the IC50 turn out when Cc1cc(NS(C)(=O)=O)c(Cl)c(-c2nc(C3(C)CC3)[nH]c2-c2ccnc(NCCC#N)n2)c1 [Example 1AZ, N-(2-Chloro-3-(5-(2-(2-cyanoethylamino)pyrimidin-4-yl)-2-(1-methylcyclopropyl)-1H-imidazol-4-yl)-5-methylphenyl)methanesulfonamide] was run?
**A.** 0.29 nM

**Q.** For COC(=O)N[C@@H](C)CNc1nccc(-c2nc(C3(C)CC3)[nH]c2-c2cc(Cl)cc(NS(C)(=O)=O)c2F)n1 [Example 1AL], which IC50 is on record?
**A.** 1 nM

**Q.** With COC(=O)N[C@@H](C)CNc1nccc(-c2[nH]c(C(C)(C)C)nc2-c2cccc(NS(=O)(=O)CCC(F)(F)F)c2F)n1 [Example 4E, (S)-Methyl 1-(4-(2-tert-butyl-4-(2-fluoro-3-(3,3,3-trifluoropropylsulfonamido)phenyl)-1H-imidazol-5-yl)pyrimidin-2-ylamino)propan-2-ylcarbamate] as the molecule, how does the IC50 read?
**A.** 1.08 nM

**Q.** Which IC50 does the source give for CC(C)(C)c1nc(-c2cc(F)cc(NS(C)(=O)=O)c2Cl)c(-c2ccnc(N)n2)[nH]1 [Example 1BJ, N-(3-(5-(2-Aminopyrimidin-4-yl)-2-tert-butyl-1H-imidazol-4-yl)-2-chloro-5-fluorophenyl)methanesulfonamide] here?
**A.** 5 nM

**Q.** How did the IC50 turn out when COC(=O)N[C@@H](C)CNc1nccc(-c2[nH]c(C3CC3)nc2-c2cc(C)cc(NS(C)(=O)=O)c2F)n1 [Example 1B, (S)-methyl 1-(4-(2-cyclopropyl-4-(2-fluoro-5-methyl-3-(methylsulfonamido)phenyl)-1H-imidazol-5-yl)pyrimidin-2-ylamino)propan-2-ylcarbamate] was run?
**A.** 0.2 nM

**Q.** How did the IC50 turn out when COC(=O)N[C@@H](C)CNc1nccc(-c2[nH]c(C3CC3)nc2-c2cc(F)cc(NS(C)(=O)=O)c2Cl)n1 [Example 5A, (S)-methyl 1-(4-(4-(2-chloro-5-fluoro-3-(methylsulfonamido)phenyl)-2-cyclopropyl-1H-imidazol-5-yl)pyrimidin-2-ylamino)propan-2-ylcarbamate] was run?
**A.** 0.4 nM

**Q.** How did the IC50 turn out when CS(=O)(=O)Nc1cc(Cl)cc(-c2nc(C3CC3)[nH]c2-c2ccnc(NCCC#N)n2)c1F [Example 2A, N-(5-Chloro-3-(5-(2-(2-cyanoethylamino)pyrimidin-4-yl)-2-cyclopropyl-1H-imidazol-4-yl)-2-fluorophenyl)methanesulfonamide] was run?
**A.** 0.08 nM

**Q.** For COC(=O)N[C@@H](C)CNc1nccc(-c2[nH]c(C3CC3)nc2-c2cc(Cl)cc(NS(=O)(=O)C(C)C)c2)n1 [Example 1M, (S)-Methyl 1-(4-(4-(3-chloro-5-(1-methylethylsulfonamido)phenyl)-2-cyclopropyl-1H-imidazol-5-yl)pyrimidin-2-ylamino)propan-2-ylcarbamate], which IC50 is on record?
**A.** 0.63 nM

**Q.** CS(=O)(=O)Nc1cccc(-c2nc(C3CC3)[nH]c2-c2ccnc(NCC3(C#N)CC3)n2)c1Cl [Example 2G, N-(2-Chloro-3-(5-(2-((1-cyanocyclopropyl)methylamino)pyrimidin-4-yl)-2-cyclopropyl-1H-imidazol-4-yl)phenyl)methanesulfonamide] was tested. Which IC50 did it give?
**A.** 35 nM

**Q.** CS(=O)(=O)Nc1cccc(-c2nc(C3CC3)[nH]c2-c2ccnc(NCCC#N)n2)c1F [Example 2E, N-(3-(5-(2-(2-Cyanoethylamino)pyrimidin-4-yl)-2-cyclopropyl-1H-imidazol-4-yl)-2-fluorophenyl)methanesulfonamide] was tested. Which IC50 did it give?
**A.** 4 nM

**Q.** Which IC50 does the source give for COC(=O)N[C@@H](C)CNc1nccc(-c2[nH]c(C3CC3)nc2-c2cc(F)cc(NS(=O)(=O)C3CC3)c2Cl)n1 [Example 1AE, (S)-Methyl 1-(4-(4-(2-chloro-3-(cyclopropanesulfonamido)-5-fluorophenyl)-2-cyclopropyl-1H-imidazol-5-yl)pyrimidin-2-ylamino)propan-2-ylcarbamate] here?
**A.** 0.3 nM

**Q.** CS(=O)(=O)Nc1cc(F)cc(-c2nc(C3CC3)[nH]c2-c2ccncn2)c1Cl [Example 2J, N-(2-Chloro-3-(2-cyclopropyl-5-(pyrimidin-4-yl)-1H-imidazol-4-yl)-5-fluorophenyl)methanesulfonamide] was tested. Which IC50 did it give?
**A.** 87 nM

**Q.** How did the IC50 turn out when Nc1nccc(-c2[nH]c(C3CC3)nc2-c2cc(F)cc(NS(=O)(=O)c3c(F)cccc3F)c2Cl)n1 [Example 1BR, N-(3-(5-(2-Aminopyrimidin-4-yl)-2-cyclopropyl-1H-imidazol-4-yl)-2-chloro-5-fluorophenyl)-2,6-difluorobenzenesulfonamide] was run?
**A.** 0.19 nM

**Q.** How did the IC50 turn out when CC(C)(C)c1nc(-c2cc(Cl)cc(NS(C)(=O)=O)c2F)c(-c2ccnc(N)n2)[nH]1 [Example 1BD, N-(3-(5-(2-Aminopyrimidin-4-yl)-2-tert-butyl-1H-imidazol-4-yl)-5-chloro-2-fluorophenyl)methanesulfonamide] was run?
**A.** 3 nM

**Q.** For COC(=O)N[C@@H](C)CNc1nccc(-c2[nH]c(C3CCC3)nc2-c2cc(Cl)cc(NS(C)(=O)=O)c2F)n1 [Example 1BT, (S)-Methyl 1-(4-(4-(5-chloro-2-fluoro-3-(methylsulfonamido)phenyl)-2-cyclobutyl-1H-imidazol-5-yl)pyrimidin-2-ylamino)propan-2-ylcarbamate], which IC50 is on record?
**A.** 0.23 nM

**Q.** For CC1(c2nc(-c3cc(Cl)cc(NS(C)(=O)=O)c3F)c(-c3ccnc(NCCC#N)n3)[nH]2)CC1 [Example 1BB, N-(5-Chloro-3-(5-(2-(2-cyanoethylamino)pyrimidin-4-yl)-2-(1-methylcyclopropyl)-1H-imidazol-4-yl)-2-fluorophenyl)methanesulfonamide], which IC50 is on record?
**A.** 0.11 nM

**Q.** CCCS(=O)(=O)Nc1cc(F)cc(-c2nc(C3CC3)[nH]c2-c2ccncn2)c1Cl [Example 2K, N-(2-Chloro-3-(2-cyclopropyl-5-(pyrimidin-4-yl)-1H-imidazol-4-yl)-5-fluorophenyl)propane-1-sulfonamide] was tested. Which IC50 did it give?
**A.** 4 nM

**Q.** CNc1nccc(-c2[nH]c(C3CC3)nc2-c2cccc(NS(C)(=O)=O)c2F)n1 [Example 3A-2, N-(3-(2-cyclopropyl-5-(2-(methylamino)pyrimidin-4-yl)-1H-imidazol-4-yl)-2-fluorophenyl)methanesulfonamide] was tested. Which IC50 did it give?
**A.** 578 nM

**Q.** For COC(=O)N[C@@H](C)CNc1nccc(-c2[nH]c(C(C)(C)C)nc2-c2cccc(NS(C)(=O)=O)c2)n1 [Example 1R, (S)-Methyl 1-(4-(2-tert-butyl-4-(3-(methylsulfonamido)phenyl)-1H-imidazol-5-yl)pyrimidin-2-ylamino)propan-2-ylcarbamate], which IC50 is on record?
**A.** 34.5 nM

**Q.** Which IC50 does the source give for COC(=O)N[C@@H](C)CNc1nccc(-c2nc(C3CC3)[nH]c2-c2cc(Cl)cc(NS(=O)(=O)CC3CC3)c2F)n1 [Example 1AC, (S)-Methyl 1-(4-(5-(5-chloro-3-(cyclopropylmethylsulfonamido)-2-fluorophenyl)-2-cyclopropyl-1H-imidazol-4-yl)pyrimidin-2-ylamino)propan-2-ylcarbamate] here?
**A.** 0.26 nM

**Q.** Which IC50 does the source give for CCNc1nccc(-c2[nH]c(C3CC3)nc2-c2cc(F)cc(NS(C)(=O)=O)c2Cl)n1 [Example 1AQ, N-(2-Chloro-3-(2-cyclopropyl-5-(2-(ethylamino)pyrimidin-4-yl)-1H-imidazol-4-yl)-5-fluorophenyl)methanesulfonamide] here?
**A.** 11 nM

**Q.** How did the IC50 turn out when CCCS(=O)(=O)Nc1cc(F)cc(-c2nc(C3CC3)[nH]c2-c2ccnc(NC(C)C)n2)c1Cl [Example 1AU, N-(2-Chloro-3-(2-cyclopropyl-5-(2-(isopropylamino)pyrimidin-4-yl)-1H-imidazol-4-yl)-5-fluorophenyl)propane-1-sulfonamide] was run?
**A.** 5 nM
